Results reported in patent US11229618B2 (Amarin Pharmaceuticals Ireland Limited, priority 2012, dated 2022).

Tested on: fasting TG levels
Assay: MARINE: fasting TG lowering and LDL-C
Assay type: in vivo, human
Settings: for median percent reductions in TG from baseline, 4 g/day compared with 2 g/day: 12 weeks
Experimental: A multi-center, placebo-controlled randomized, double-blind, 12-week study with an open-label extension is performed to evaluate the efficacy and safety of AMR101 in patients with fasting triglyceride levels≥500 mg/dL. The primary objective of the study is to determine the efficacy of AMR101 2 g daily and 4 g daily, compared to placebo, in lowering fasting TG levels in patients with fasting TG levels≥500 mg/dL and ≤1500 mg/dL (≥5.65 mmol/L and ≤16.94 mmol/L).
The primary efficacy variable for the double-blind treatment period is percent change in TG from baseline to Week 12 endpoint. The secondary efficacy variables for the double-blind treatment period include the following: • Percent changes in total cholesterol (TC), high-density lipoprotein cholesterol (HDL-C), calculated low-density lipoprotein cholesterol (LDL-C), calculated non-high-density lipoprotein cholesterol (non-HDL-C), and very low-density lipoprotein cholesterol (VLDL-C) from baseline to Week 12 endpoint; • Percent change in very low-density lipoprotein TG from baseline to Week 12; • Percent changes in apolipoprotein A-I (apo A-I), apolipoprotein B (apo B), and apo A-I/apo B ratio from baseline to Week 12; • Percent changes in lipoprotein(a) from baseline to Week 12 (selected sites only); • Percent changes in LDL particle number and size, measured by nuclear magnetic resonance, from baseline to Week 12 (selected sites only); • Percent change in remnant-like particle cholesterol from baseline to Week 12 (selected sites only); • Percent change in oxidized LDL from baseline to Week 12 (selected sites only); • Changes in FPG and HbA1c from baseline to Week 12; • Change in insulin resistance, as assessed by the homeostasis model index insulin resistance, from baseline to Week 12; • Percent change in lipoprotein associated phospholipase A2 from baseline to Week 12 (selected sites only); • Change in intracellular adhesion molecule-1 from baseline to Week 12 (selected sites only); • Change in interleukin-6 from baseline to Week 12 (selected sites only); • Change in plasminogen activator inhibitor-1 from baseline to Week 12 (selected sites only); • Change in hsCRP from baseline to Week 12 (selected sites only); • Change in serum phospholipid EPA content from baseline to Week 12; • Change in red blood cell membrane EPA content from baseline to Week 12; and • Change in serum phospholipid and red blood cell membrane content in the following fatty acids from baseline to Week 12: docosapentaenoic acid, docosahexaenoic acid, arachidonic acid, palmitic acid, stearic acid, and oleic acid.
MARINE and ANCHOR were 12-week, phase 3, double-blind studies that randomized patients to IPE 4 g/day, 2 g/day, or placebo. […]

CC/C=C\C/C=C\C/C=C\C/C=C\C/C=C\CCCC(=O)OCC [IPE, all-cis eicosa-5,8,11,14,17-pentaenoic acid ethyl ester]
effect on LDL-C: without raising LDL-C | median percent reductions in TG from baseline, 4 g/day compared with 2 g/day: higher with IPE 4 g/day than with 2 g/day | median percent reductions in TG from baseline, 4 g/day compared with 2 g/day (listed as EPA): higher for subjects administered about 4 grams of EPA per day | effect on TG levels (patients with very high TG levels): significantly reduced TG levels
